Laboratory results published in US6190664A, “Depigmenting cosmetic skin-care composition and use thereof” (C 3 D, priority 1995, dated 2001).

Test system: Tyrosinase
Assay: In vitro inhibition of tyrosinase (Dopachrome at 475 nm, substrate L-Dopa)
Assay type: biochemical
Conditions: for % of activity: controls = 100%
Description: The following test then allows to measure the inhibition of tyrosinase while dosing Dopachrome which is a coloured compound which may spectroscopically be dosed 475 nm.
In order to study the influence of some compounds on the enzymatic activity of tyrosinase, the enzymatic kinetics are achieved.
The reaction is performed at 25° C. in phosphate buffer pH7. Tyrosinase is brought together with its substrate L-Dopa. In the reaction medium it may be added the molecule to be studied.
One compares further the variation in optical density per minute of the test (in the presence of the molecule to be studied) to that of the controls (without molecule). The influence of the molecule on tyrosinase activity will be deduced. The results are then expressed as a percentage of activity knowing that the controls show 100% activity.
Appearance of Dopachrome at 475 nm is followed for 3 minutes.

SMILES | % of inhibition (tested concentration 1 mg/ml) | % of activity (tested concentration 1 mg/ml) | % of inhibition (tested concentration 4 mg/ml) | % of activity (tested concentration 4 mg/ml) | % of inhibition (tested concentration 8 mg/ml) | % of activity (tested concentration 8 mg/ml) | % of inhibition (tested concentration 16 mg/ml) | % of activity (tested concentration 16 mg/ml) | % of inhibition (tested concentration 10 mg/ml) | % of activity (tested concentration 10 mg/ml)
CCCCCCCCCCCCCCCC(=O)OC[C@H](O)[C@H]1OC(=O)C(O)=C1O [Ascorbyl Palmitate] | 66% | 34% | – | – | – | – | – | – | – | –
Oc1ccc(O)cc1 [Hydroquinone] | – | – | 0% | 241.9% | 0% | 229.41% | 0% | 112.53% | – | –
O=c1cc(CO)occ1O [Kojic acid] | 71% | 29% | – | – | – | – | – | – | 80% | 20%
